Measured values: patent US11976083B2, “Inhibitors of peptidylarginine deiminases” (Gilead Sciences, Inc., priority 2020, dated 2024)

target: T1, human PAD4 (Homo sapiens, UniProt Q9UM07); experiment: In vitro PAD4 BAEE biochemical assay; conditions: BAEE substrate 3 mM, 5 nM PAD4, 2 mM calcium chloride; geometric mean of multiple experiments
T1 construct: human PAD4 (NM_012387), A2-P663, was PCR amplified; His-SUMO (N, cleaved yes); made in house; host or cells: E. coli BL21(DE3)
In short: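 Fluorescence read-out (ex 405/em 535 nm) of isoindole formed from ammonia, o-phthalaldehyde and DTT after EDTA stop. Reaction: 5 nM PAD4, 2 mM CaCl2, 3 mM BAEE, 2 h, 25 °C, after 30 min enzyme–compound preincubation. Normalised to BB-Cl-Amidine (50 µM) and DMSO controls.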

T1 sequence (Q9UM07 2-663): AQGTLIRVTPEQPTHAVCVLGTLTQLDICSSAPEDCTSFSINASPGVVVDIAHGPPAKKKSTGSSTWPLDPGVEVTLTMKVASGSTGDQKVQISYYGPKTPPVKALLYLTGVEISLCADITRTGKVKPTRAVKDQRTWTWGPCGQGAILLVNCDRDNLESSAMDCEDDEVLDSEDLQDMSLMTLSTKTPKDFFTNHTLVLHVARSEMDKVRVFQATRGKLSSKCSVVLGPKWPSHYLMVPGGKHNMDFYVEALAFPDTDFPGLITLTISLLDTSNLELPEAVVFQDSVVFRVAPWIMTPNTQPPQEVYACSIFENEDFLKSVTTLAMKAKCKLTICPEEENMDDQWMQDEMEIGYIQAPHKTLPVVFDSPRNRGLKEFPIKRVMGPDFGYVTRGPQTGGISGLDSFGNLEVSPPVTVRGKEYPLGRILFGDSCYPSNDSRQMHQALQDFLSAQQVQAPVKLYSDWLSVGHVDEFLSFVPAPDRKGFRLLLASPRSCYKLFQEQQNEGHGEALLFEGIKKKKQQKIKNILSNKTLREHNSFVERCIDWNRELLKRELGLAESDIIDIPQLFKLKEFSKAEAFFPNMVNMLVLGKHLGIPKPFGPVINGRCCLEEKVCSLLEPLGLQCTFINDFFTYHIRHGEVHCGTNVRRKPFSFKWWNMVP

SMILES	IC50 [nM]
COc1cc(C(=O)N2CCC(OC3CC3)C(N)C2)cc2nc(-c3cc4ccc5nc4n3CCCCCCC(C)(C)C(=O)N[C@@H]5C)n(C)c12 (stereo partly drawn) [Example 527, (11~{R})-17-[5-[3-amino-4-(cyclopropoxy)piperidine-1-carbonyl]-7-methoxy-1-methyl-benzimidazol-2-yl]-8,8,11-trimethyl-1,10,19-triazatricyclo[10.5.2.0^ {15,18}]nonadeca-12(19),13,15(18), 16-tetraen-9-one]	215
COc1cc(C(=O)N2CCC[C@@H](N)[C@H]2C)cc2nc(-c3cc4ccc5nc4n3CCCCCc3nccnc3C(=O)N[C@@H]5C)n(C)c12 [Example 528, (2~{R})-17-[5-[(2~ {R},3~{R})-3-amino-2-methyl-piperidine-1-carbonyl]-7-methoxy-1-methyl-benzimidazol-2-yl]-2-methyl-3,6,9,16,22-pentazatetracyclo [14.5.2.0^{5,10}.0^{19, 23}]tricosa-1(22),5(10), 6,8,17,19(23),20-heptaen-4-one]	55
COc1cc(C(=O)N[C@@H]2CNC[C@@H](O)C2)cc2nc(-c3cc4ccc5nc4n3CCCCCCC(C)(C)C(=O)N[C@@H]5C)n(C)c12 [Example 529, ~{N}-[(3~{S},5~{S})-5-hydroxy-3-piperidyl]-7-methoxy-1-methyl-2-[(11~{R})-8,8,11-trimethyl-9-oxo-1,10,19-triazatricyclo[10.5.2.0^{15,18}]nonadeca-12(19),13,15(18),16-tetraen-17-yl]benzimidazole-5-carboxamide]	409
COc1cc(C(=O)N[C@H]2CNC[C@H](O)C2)cc2nc(-c3cc4ccc5nc4n3CCCCCCC(C)(C)C(=O)N[C@@H]5C)n(C)c12 [Example 530, ~{N}-[(3~{R},5~ {R})-5-hydroxy-3-piperidyl]-7-methoxy-1-methyl-2-[(11~{R})-8,8,11-trimethyl-9-oxo-1,10,19-triazatricyclo [10.5.2.0^{15,18}]nonadeca-12(19),13,15(18),16-tetraen-17-yl]benzimidazole-5-carboxamide]	51
COc1cc(C(=O)N2CC[C@H]3CCN[C@H]3C2)cc2nc(-c3cc4ccc5nc4n3CCCCC[C@@H]3C[C@H]3C(=O)N[C@@H]5C)n(C)c12 [Example 531, (2~{R},5~{R},7~{R})-14-[5-[(3~{a}-{R},7~ {a}~{R})-1,2,3,3~ {a},4,5,7,7~{a}-octahydropyrrolo[2,3-c]pyridine-6-carbonyl]-7-methoxy-1-methyl-benzimidazol-2-yl]-2-methyl-3,13,19-triazatetracyclo[11.5.2.0^ {5,7}.0^{16,20}]icosa-1(19),14,16(20),17-tetraen-4-one]	36
COc1cc(C(=O)N2CC[C@@H]3CCN[C@@H]3C2)cc2nc(-c3cc4ccc5nc4n3CCCCC[C@@H]3C[C@H]3C(=O)N[C@@H]5C)n(C)c12 [Example 532, (2~{R},5~{R},7~{R})-14-[5-[(3~{a}~{S}, 7~{a}~{S})-1,2,3,3~ {a},4,5,7,7~{a}-octahydropyrrolo[2,3-c]pyridine-6-carbonyl]-7-methoxy-1-methyl-benzimidazol-2-yl]-2-methyl-3,13,19-triazatetracyclo[11.5.2.0^ {5,7}.0^{16,20}]icosa-1 (19),14,16(20),17-tetraen-4-one]	239
COc1cc(C(=O)N2CC[C@@H](CO)[C@@H](N)C2)cc2nc(-c3cc4ccc5nc4n3CCCCCCC(C)(C)C(=O)N[C@@H]5C)n(C)c12 [Example 533, (11~{R})-17-[5-[(3~ {R},4~{R})-3-amino-4-(hydroxymethyl)piperidine-1-carbonyl]-7-methoxy-1-methyl-benzimidazol-2-yl]-8,8,11-trimethyl-1,10,19-triazatricyclo [10.5.2.0^{15,18}]nonadeca-12(19),13,15(18),16-tetraen-9-one]	398
COc1cc(C(=O)N2[C@H]3CC[C@@H]2[C@H](N)C3)cc2nc(-c3cc4ccc5nc4n3CC(F)(F)CCCCCC(=O)N[C@@H]5C)n(C)c12 [Example 534, (11~{R})-17-[5-[(1~ {R},2~{R},4~{S})-2-amino-7-azabicyclo[2.2.1]heptane-7-carbonyl]-7-methoxy-1-methyl-benzimidazol-2-yl]-3,3-difluoro-11-methyl-1,10,19-triazatricyclo[10.5.2.0^ {15,18}]nonadeca-12(19),13,15(18),16-tetraen-9-one]	56
COc1cc(C(=O)N2C[C@@H]3C[C@@H]3[C@@H](N)C2)cc2nc(-c3cc4ccc5nc4n3CCCCCCC(C)(C)C(=O)N[C@@H]5C)n(C)c12 [Example 535, (11~{R})-17-[5-[(1~ {R},5~{R},6~{S})-5-amino-3-azabicyclo[4.1.0]heptane-3-carbonyl]-7-methoxy-1-methyl-benzimidazol-2-yl]-8,8,11-trimethyl-1,10,19-triazatricyclo[10.5.2.0^ {15,18}]nonadeca-12(19),13,15(18),16-tetraen-9-one]	384
COc1cc(C(=O)N2C[C@H](N)C[C@H](O)C2)cc2nc(-c3cc4ccc5nc4n3CCCCCCC(C)(C)C(=O)N[C@@H]5C)n(C)c12 [Example 536, (11~{R})-17-[5-[(3~{R},5~{S})-3-amino-5-hydroxy-piperidine-1-carbonyl]-7-methoxy-1-methyl-benzimidazol-2-yl]-8,8,11-trimethyl-1,10,19-triazatricyclo[10.5.2.0^ {15,18}]nonadeca-12(19), 13,15(18),16-tetraen-9-one]	137
Cc1cc2c(cc1C(=O)N[C@H]1CNCC[C@@H]1F)nc(-c1cc3ccc4nc3n1CCCCCCC(C)(C)C(=O)N[C@@H]4C)n2C [Example 537, ~{N}-[(3~{S},4~ {S})-4-fluoro-3-piperidyl]-1,6-dimethyl-2-[(11~{R})-8,8,11-trimethyl-9-oxo-1,10,19-triazatricyclo [10.5.2.0^{15,18}]nonadeca-12(19),13,15(18), 16-tetraen-17-yl]benzimidazole-5-carboxamide]	87
C[C@H]1NC(=O)C(C)(C)CCCCCCn2c(-c3nc4cc(C(=O)N[C@H]5CNCC[C@@H]5F)c(F)c(F)c4n3C)cc3ccc1nc32 [Example 538, 6,7-difluoro-~{N}-[(3~ {S},4~{S})-4-fluoro-3-piperidyl]-1-methyl-2-[(11~{R})-8,8,11-trimethyl-9-oxo-1,10,19-triazatricyclo[10.5.2.0^ {15,18}]nonadeca-12(19),13,15(18),16-tetraen-17-yl]benzimidazole-5-carboxamide]	90
C[C@H]1NC(=O)[C@H]2C[C@@H]2CCCCCn2c(-c3nc4cc(C(=O)N[C@H]5CNCC[C@@H]5F)c(F)cc4n3C3CC3)cc3ccc1nc32 [Example 539, 1-cyclopropyl-6-fluoro-~{N}-[(3~{S},4~{S})-4-fluoro-3-piperidyl]-2-[(2~{R},5~{S},7~ {S})-2-methyl-4-oxo-3,13,19-triazatetracyclo [11.5.2.0^{5,7}.0^{16,20}]icosa-1(19),14,16 (20),17-tetraen-14-yl]benzimidazole-5-carboxamide]	175
C[C@H]1NC(=O)C(C)(C)OCCCCCn2c(-c3nc4cc(C(=O)N[C@H]5CNCC[C@@H]5F)c(F)cc4n3C3CC3)cc3ccc1nc32 [Example 540, 1-cyclopropyl-6-fluoro-~{N}-[(3~{S},4~{S})-4-fluoro-3-piperidyl]-2-[(11~{R})-8,8,11-trimethyl-9-oxo-7-oxa-1,10,19-triazatricyclo[10.5.2.0^ {15,18}]nonadeca-12(19),13,15(18),16-tetraen-17-yl] benzimidazole-5-carboxamide]	90
C[C@H]1NC(=O)C(C)(C)CCCCCCn2c(-c3nc4cc(C(=O)N[C@H]5CNCC[C@@H]5F)c(Cl)cc4n3C)cc3ccc1nc32 [Example 541, 6-chloro-~{N}-[(3~ {S),4~{S})-4-fluoro-3-piperidyl]-1-methyl-2-[(11~{R})-8,8,11-trimethyl-9-oxo-1,10,19-triazatricyclo[10.5.2.0^ {15,18}]nonadeca-12(19), 13,15(18),16-tetraen-17-yl]benzimidazole-5-carboxamide]	123
COc1cc(C(=O)N2C[C@@H]3C[C@@H]3[C@@H](N)C2)cc2nc(-c3cc4ccc5nc4n3CCCCCCC(C)(C)C(=O)N[C@@H]5C)n(C)c12 [Example 542, (11~{R})-17-[5-[(1~ {R},5~{R},6~{S})-5-amino-3-azabicyclo [4.1.0]heptane-3-carbonyl]-7-methoxy-1-methyl-benzimidazol-2-yl]-8,8,11-trimethyl-1,10,19-triazatricyclo [10.5.2.0^{15,18}]nonadeca-12(19),13,15(18), 16-tetraen-9-one]	479
COc1cc(C(=O)N2C[C@H]3C[C@H]3[C@H](N)C2)cc2nc(-c3cc4ccc5nc4n3CCCCCCC(C)(C)C(=O)N[C@@H]5C)n(C)c12 [Example 543, (11~{R})-17-[5-[(1~ {S},5~{S},6~{R})-5-amino-3-azabicyclo [4.1.0]heptane-3-carbonyl]-7-methoxy-1-methyl-benzimidazol-2-yl]-8,8,11-trimethyl-1,10,19-triazatricyclo [10.5.2.0^{15,18}]nonadeca-12(19),13,15(18), 16-tetraen-9-one]	405
C[C@H]1NC(=O)[C@]2(C)C[C@H]2CCCCCn2c(-c3nc4cc(C(=O)N[C@H]5CNCC[C@@H]5F)c(F)cc4n3C3CC3)cc3ccc1nc32 [Example 544, 1-cyclopropyl-2-[(2~ {R},5~{R},7~{R})-2,5-dimethyl-4-oxo-3,13,19-triazatetracyclo [11.5.2.0^{5,7}.0^{16,20}]icosa-1(19),14,16(20), 17-tetraen-14-yl]-6-fluoro-~ {N}-[(3~{S},4~{S})-4-fluoro-3-piperidyl]benzimidazole-5-carboxamide]	40
